Holding throughout (format): in vivo
Assay [1] relates to Plutella xylostella. Kind of assay: Plutella xylostella spray test (PLUTMA), comparative. The conditions noted are these: 168 h, 0.16 ppm, cabbage leaves, after 7 days. The text has this: Plutella xylostella Spray Test (PLUTMA) Solvent: 14 parts by weight of dimethylformamide Emulsifier: alkylaryl polyglycol ether An appropriate active ingredient formulation is produced by dissolving 1 part by weight of active ingredient with the stated parts by weight of solvent and making the solution up to the desired concentration with water containing an emulsifier concentration of 1000 ppm. Further test concentrations are produced by diluting the formulation with emulsifier-containing water. If the addition of ammonium salts or/and penetrants is required, these are each added in a concentration of 1000 ppm to the formulation solution. Cabbage leaves (Brassica oleracea) are sprayed with an active ingredient formulation of the desired concentration and infected with larvae of the diamondback moth (Plutella xylostella). After 7 days, the kill in % is determined. 100% means that all caterpillars have been killed; 0% means that none of the caterpillars have been killed.

In assay [2] the test system is Lucilia cuprina. Kind of assay: Lucilia cuprina test. The conditions noted are these: 100 ppm, L1 larvae, after 2 days. On the procedure: Lucilia cuprina Test Solvent: dimethyl sulfoxide An appropriate active ingredient formulation is produced by mixing 10 mg of active ingredient with 0.5 ml of dimethyl sulfoxide and diluting the concentrate with water to the desired concentration. About 20 L1 larvae of the Australian sheep blowfly (Lucilia cuprina) are transferred into a test vessel containing minced horsemeat and the active ingredient formulation of the desired concentration. After 2 days, the kill rate in % is determined relative to the untreated control. 100% means that all the larvae have been killed; 0% means that no larvae have been killed.

The test system of assay [3] is Musca domestica. Kind of assay: Musca domestica test. The settings on record: 100 ppm, adult houseflies, after 2 days. On the procedure: Musca domestica Test Solvent: dimethyl sulfoxide An appropriate active ingredient formulation is produced by mixing 10 mg of active ingredient with 0.5 ml of dimethyl sulfoxide and diluting the concentrate with water to the desired concentration. Vessels containing a sponge treated with sugar solution and the desired concentration of active compound formulation are populated with 10 adult houseflies (Musca domestica). After 2 days, the kill rate in % is determined relative to the untreated control. 100% means that all of the flies have been killed; 0% means that none of the flies have been killed.

The test system of assay [4] is Ctenocephalides felis. Kind of assay: Ctenocephalides felis oral test. The settings on record: 100 ppm, oral via cattle blood, after 2 days. On the procedure:
Ctenocephalides felis—Oral Test Solvent: dimethyl sulfoxide An appropriate active ingredient formulation is produced by mixing 10 mg of active ingredient with 0.5 ml of dimethyl sulfoxide. Dilution with citrated cattle blood gives the desired concentration. About 20 unfed adult cat fleas (Ctenocephalides felis) are placed into a chamber which is closed at the top and bottom with gauze. Onto the chamber is placed a metal cylinder with its bottom end closed with parafilm. The cylinder contains the blood/active ingredient formulation, which can be imbibed by the fleas through the parafilm membrane. The cylinder is heated to 37° C., while the flea chambers are kept at room temperature. After 2 days, the kill rate in % is determined relative to the untreated control. 100% means that all of the fleas have been killed; 0% means that none of the fleas have been killed.

In assay [5] the test system is Myzus persicae. Kind of assay: Myzus persicae oral test. The conditions noted are these: 4 ppm, after 5 days. On the procedure:
Myzus persicae—Oral Test Solvent: 100 parts by weight of acetone An appropriate active ingredient formulation is produced by dissolving 1 part by weight of active ingredient with the specified parts by weight of solvent and making the solution up to the desired concentration with water. 50 μl of the active ingredient formulation is transferred into microtitre plates and made up to a final volume of 200 μl with 150 μl of IPL41 insect medium (33%+15% sugar). Subsequently, the plates are sealed with parafilm, which a mixed population of green peach aphids (Myzus persicae) within a second microtitre plate is able to puncture and imbibe the solution. After 5 days, efficacy in % is determined. 100% means that all the aphids have been killed; 0% means that no aphids have been killed.

The test system of assay [6] is Phaedon cochleariae. Kind of assay: Phaedon cochleariae spray test. The settings on record: 100 g/ha, Chinese cabbage leaf discs, after 7 days. The text has this: Phaedon cochleariae—Spray Test
Solvent: 78.0 parts by weight of acetone • • 1.5 parts by weight of dimethylformamide
Emulsifier: alkylaryl polyglycol ether
An appropriate active ingredient formulation is produced by dissolving 1 part by weight of active ingredient with the stated parts by weight of solvent and making the solution up to the desired concentration with water containing an emulsifier concentration of 1000 ppm. Further test concentrations are produced by diluting the formulation with emulsifier-containing water.
Discs of Chinese cabbage leaves (Brassica pekinensis) are sprayed with an active ingredient formulation of the desired concentration and, after drying, populated with larvae of the mustard beetle (Phaedon cochleariae).
After 7 days, efficacy in % is determined. 100% means that all the beetle larvae have been killed; 0% means that no beetle larvae have been killed.

Assay [7] has as its system Spodoptera frugiperda. As to the kind of experiment: Spodoptera frugiperda spray test (maize leaf discs). The conditions noted are these: Spodoptera frugiperda, foliar, 168 h, after 7 days, read-out: efficacy. The essentials:
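Maize leaf discs sprayed with compound formulated in acetone/DMF with alkylaryl polyglycol ether emulsifier (1000 ppm) in water, then infested with fall armyworm caterpillars after drying. Efficacy (% caterpillars killed) scored after 7 days; 100% means all killed, 0% none.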

The test system of assay [8] is Boophilus microplus. As to the kind of experiment: Boophilus microplus injection test. The settings on record: 20 μg/tick, after 7 days, laying of fertile eggs. On the procedure:
Boophilus microplus—Injection Test Solvent: dimethyl sulfoxide An appropriate active ingredient formulation is produced by mixing 10 mg of active ingredient with 0.5 ml of solvent and diluting the concentrate with solvent to the desired concentration. 1 μl of the active ingredient solution is injected into the abdomen of 5 engorged adult female cattle ticks (Boophilus microplus). The ticks are transferred into dishes and kept in a climate-controlled room. Efficacy is checked after 7 days by laying of fertile eggs. Eggs which are not visibly fertile are stored in a climate-controlled cabinet until the larvae hatch after about 42 days. Efficacy of 100% means that none of the ticks has laid any fertile eggs; 0% means that all the eggs are fertile.

Each structure is given as a SMILES string.

For the molecule `CCS(=O)(=O)c1ccc(-n2ncn(-c3ccc(Cl)cc3)c2=O)nc1-c1nc2cc(C(F)(F)C(F)(F)F)cnc2n1C` [Example I-23], the efficacy at 0.16 ppm in assay [1] was found to be 90%. Further, the “efficacy (kill rate)” value in assay [2], in assay [3] and in assay [4] was 100% throughout. For the same molecule, the values for the efficacy in assay [5], in assay [6] and in assay [8] were 100%, 100% and 90%, respectively. For the same molecule, the pest or weed control at 100 g/ha in assay [7] amounted to 100%.

(Values after patent US20240294533A1, “2-(HET)ARYL-SUBSTITUTED CONDENSED HETEROCYCLE DERIVATIVES AS PEST CONTROL AGENTS” (Bayer Aktiengesellschaft, priority 2021, published 2024).)
